The values below come from patent US9592224B2, “Substituted benzothiazoles and therapeutic uses thereof for the treatment of human diseases” (CONSEJO SUPERIOR DE INVESTIGACIONES CIENTÍFICAS, priority 2013, dated 2017).

One data set can be described thus: in vitro. The conditions noted are these: pig, pH 7.4; for Papp at […]: PAMPA. How it is done:
To filter the samples, PVDF membrane filters (diameter: 30 mm, pore size: 0.45 μm) were used.
Ten reference compounds were selected, whose blood-brain barrier passage is known and public, in order to validate the experiment. […] The solutions were filtered. Next, 180 μL of a PBS/ethanol (70/30) solution were added to each well of the acceptor plate. The donor plate was impregnated with 4 μL of a porcine brain lipid solution dissolved in dodecane (20 mg mL^−1). After 5 min, 180 μL of dissolution of each compound were added to this plate. Of the compounds whose penetration into the central nervous system was to be assessed, between 1-2 mg were taken and dissolved in 1,500 μL of ethanol and 3,500 μL of PBS (pH=7.4), filtered and added to the donor 96-well plate. The donor plate was then placed on the acceptor forming a kind of “sandwich” and allowed to incubate for 2 hours and 30 min at 25° C. The compounds, by passive transport, will move from the donor plate through the porcine brain lipid to the acceptor plate. After 2 hours and 30 min, it was carefully removed from the donor plate. The concentration and absorbance, both of the commercial compounds and the synthesised derivatives evaluated in the acceptor and donor plates were determined using a UV absorbance reader. Each sample was analysed at different wavelengths (3 to 5) in three wells and in at least two independent experiments.

For data set [1] the following is noted: literature value, Di et al, 2003; cited from earlier work.
Data set [2] deals with T1, recombinant human enzyme CK-1ε (Homo sapiens, UniProt P49674).
T1 construct: purchased Invitrogen
T1 sequence (P49674 whole entry): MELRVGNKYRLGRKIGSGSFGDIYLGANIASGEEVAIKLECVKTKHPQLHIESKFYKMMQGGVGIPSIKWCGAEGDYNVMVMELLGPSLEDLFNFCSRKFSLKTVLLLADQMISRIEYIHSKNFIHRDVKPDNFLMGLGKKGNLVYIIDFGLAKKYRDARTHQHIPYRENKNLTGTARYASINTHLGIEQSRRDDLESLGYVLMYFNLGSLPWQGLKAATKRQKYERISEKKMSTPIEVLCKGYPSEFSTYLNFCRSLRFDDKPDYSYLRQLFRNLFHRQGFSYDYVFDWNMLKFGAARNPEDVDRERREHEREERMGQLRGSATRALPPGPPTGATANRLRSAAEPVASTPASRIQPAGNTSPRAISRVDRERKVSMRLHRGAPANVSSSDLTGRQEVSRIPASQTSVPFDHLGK
Description: Enzyme inhibition assay, Luminometer Kinase-GLO method, CK-1ε. In kind it is biochemical. The conditions noted are these: casein substrate, 4 μM ATP, 60 minutes at 30° C.; read-out: Inhibitory Concentration 50 (IC50) CK-1ε. The procedure:
(§1) Enzyme inhibition assays were performed using the Luminometer Kinase-GLO® method. Recombinant human enzyme CK-1δ was purchased from Millipore Iberica SAU and recombinant human enzyme CK-1ε was purchased from Invitrogen. The phosphorylation substration chosen was casein. The Luminescent Kinase Kit (catalogue no. V6711) was obtained from Promega. ATP and other reagents were purchased from Sigma-Aldrich (St. Louis, Mo.).
(§2) The assays were conducted in buffer using 96-well plates. In a typical assay: 10 μL of the test compound (dissolved in dimethylsulfoxide at a concentration of 1 mM and, in turn, dissolved in buffer to the required concentration for the experiment) and 10 μL (16 ng) of the CK-1δ enzyme or 10 μL (50 ng) of the CK-1ε enzyme row were added to each well followed by 20 μL of buffer containing 0.1% casein as substrate and 4 μM of ATP. The assay buffer contained: 50 mM HEPES, pH 7.5; 0.01% Brij-35; 10 mM MgCl2; 1 mM EGTA and 0.01% NaN3. […] After incubating for 60 minutes at 30° C., the enzymatic reaction was stopped using 40 μL of Kinase-GLO® reagent. Luminescence was measured after ten minutes using a FLUOstar Optima (BMG Labtechnologies GmbH, Offenburg, Germany) multimode reader. The activity was proportional to the difference between the total and consumed ATP. Inhibition activities were calculated in accordance with the maximum activity measured in the absence of inhibitor. IC50 is defined as the concentration of each compound that reduces enzyme activity by 50% with respect to that obtained without inhibitor.

Data set [3] concerns the target T2, recombinant human enzyme CK-1δ (Homo sapiens, UniProt P48730).
T2 construct: purchased Millipore Iberica SAU
The data set can be described thus: Enzyme inhibition assay, Luminometer Kinase-GLO method, CK-1δ. The data set is classed as biochemical. The conditions noted are these: casein substrate, 4 μM ATP, 60 minutes at 30° C.; read-out: Inhibitory Concentration 50 (IC50) CK-1δ. How it is done:
as §1, §2

T2 sequence (P48730 whole entry): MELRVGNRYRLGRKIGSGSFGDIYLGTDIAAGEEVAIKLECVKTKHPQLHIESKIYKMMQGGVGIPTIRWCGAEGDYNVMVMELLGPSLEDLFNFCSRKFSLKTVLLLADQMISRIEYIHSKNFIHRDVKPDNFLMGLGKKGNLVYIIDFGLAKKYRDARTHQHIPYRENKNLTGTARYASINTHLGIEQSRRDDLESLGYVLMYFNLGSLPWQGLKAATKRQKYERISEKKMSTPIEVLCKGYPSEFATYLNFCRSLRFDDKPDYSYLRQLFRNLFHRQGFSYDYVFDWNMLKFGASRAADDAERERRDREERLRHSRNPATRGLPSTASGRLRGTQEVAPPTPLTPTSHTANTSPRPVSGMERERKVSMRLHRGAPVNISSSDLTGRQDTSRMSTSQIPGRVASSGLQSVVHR

On to `CN1C(C(=O)Nc2ccccn2)=C(O)c2ccccc2S1(=O)=O` [Piroxicam, reference compound], for which the “Pe (10^−6 cm s^−1) PAMPA-blood-brain barrier permeation” value in “in vitro” ([…]) is 0.2 ± 0.1 10^−6 cm s^−1. Further, the “Bibl. PAMPA-blood-brain barrier permeation (Pe)” value in data set [1] is 2.5 10^−6 cm s^−1.
`COc1cc(CC(=O)Nc2nc3ccc(C(F)(F)F)cc3s2)cc(OC)c1OC` [Compound 10] gave a Papp at […] in “in vitro” of 10.6 ± 0.1 ×10⁻⁶ cm/s. The IC50 was 370 nM in data set [2] and 15 nM in data set [3].
In turn, `O=C(Cc1ccccc1)Nc1nc2ccc(C(F)(F)F)cc2s1` [Compound 12, N-(6-trifluoromethylbenzothiazole-2-yl)-2-phenylacetamide] displayed an apparent permeability coefficient (Papp) at […] in the data set “in vitro” of 10.4 ± 3.9 ×10⁻⁶ cm/s. The IC50 is 760 nM in data set [2] and 47 nM in data set [3].
For `COc1ccc(CC(=O)Nc2nc3ccc(C(F)(F)F)cc3s2)cc1` [Compound 3, N-(6-trifluoromethylbenzothiazole-2-yl)-2-(4-methoxyphenyl)acetamide], in that order: 14.6 ± 0.1 ×10⁻⁶ cm/s, 700 nM and 33 nM.
For the molecule `COc1ccccc1CC(=O)Nc1nc2ccc(C)cc2s1` [Compound 30, N-(6-methylbenzothiazole-2-yl)-2-(2-methoxyphenyl)acetamide], the Papp at […] in “in vitro” is 6.2 ± 0.5 ×10⁻⁶ cm/s. The IC50 in data set [2] came out at 4930 nM; in data set [3], 290 nM.
For `O=C(Cc1ccc(Cl)cc1)Nc1nc2ccc(C(F)(F)F)cc2s1` [Compound 1, N-(6-trifluoromethylbenzothiazole-2-yl)-2-(4-chlorophenyl)acetamide], in that order: 9.6 ± 0.1 ×10⁻⁶ cm/s, 550 nM and 65 nM.
The matching figures for `O=C(Cc1ccccc1)Nc1nc2ccccc2s1` [Compound 14, N-(benzothiazole-2-yl)-2-phenylacetamide]: 12.7 ± 1.2 ×10⁻⁶ cm/s, 2310 nM and 330 nM.
Take `O=C(Cc1cccc(Cl)c1)Nc1nc2ccccc2s1` [Compound 20, N-(benzothiazole-2-yl)-2-(3-chlorophenyl)acetamide]: the apparent permeability (Papp) at […] in the data set “in vitro” is 10.6 ± 0.3 ×10⁻⁶ cm/s. Besides, the IC50 is 2860 nM in data set [2] and 850 nM in data set [3].
For `COc1cccc(CC(=O)Nc2nc3ccc(C(F)(F)F)cc3s2)c1` [Compound 6, N-(6-trifluoromethylbenzothiazole-2-yl)-2-(3-methoxyphenyl)acetamide], in that order: 11.2 ± 2 ×10⁻⁶ cm/s, 690 nM and 42 nM.
As to `O=C(Cc1cccc(Cl)c1)Nc1nc2ccc(C(F)(F)F)cc2s1` [Compound 4, N-(6-trifluoromethylbenzothiazole-2-yl)-2-(3-chlorophenyl)acetamide], the Papp at […] in “in vitro” turned out to be 5.9 ± 0.5 ×10⁻⁶ cm/s. Moreover, the IC50 amounted to 840 nM in data set [2] and 23 nM in data set [3].
Molecule `CN(C)CCCN1c2ccccc2Sc2ccccc21` [Promazine, reference compound] gave a Papp at […] in the data set “in vitro” of 8.5 ± 0.1 ×10⁻⁶ cm/s. Further, in data set [1], the “Bibl. PAMPA-blood-brain barrier permeation (Pe)” value is reported as 8.8 10^−6 cm s^−1.
`Cc1ccc2nc(NC(=O)Cc3cccc(Cl)c3)sc2c1` [Compound 5, N-(6-methylbenzothiazole-2-yl)-2-(3-chlorophenyl)acetamide]: the Papp at […] in “in vitro” worked out at 5.6 ± 0.8 ×10⁻⁶ cm/s. Also, the IC50 in data set [2] was determined as 880 nM; in data set [3] it was 83 nM.
For `COc1ccccc1CC(=O)Nc1nc2ccc(C(F)(F)F)cc2s1` [Compound 8, N-(6-trifluoromethylbenzothiazole-2-yl)-2-(2-methoxyphenyl)acetamide], in that order: 11.3 ± 2.1 ×10⁻⁶ cm/s, 800 nM and 10 nM.
